Reference: patent publication US20040029808A1, “Peptides capable of functioning as mimotopes for hormonal analytes” (priority 2000, published 2004)
Ends that are not written are not given here.

System: MAb4155 (anti-estrone-3-glucuronide monoclonal antibody)
Experiment: ELISA testing of peptides on pins: binding of MAb4155 to peptides
Design: species or system mouse
Conditions: Table 1; peptides on pins based on SEQ ID NO:2 (truncations, Ala/Gly replacement)
Protocol: Monoclonal antibodies MAb 4155 were expressed from the 4155 monoclonal cell line. The 4155 monoclonal cell line was prepared and screened according to the methods described by Gani et al., (3 Steroid Biochem. Molec. Biol. 48, 277-282 (1994)).
Peptides were synthesised in duplicate or triplicate from the C-terminus by solid phase peptide synthesis on the heads of polyethylene pins (Geysen et al., Strategies for epitope analysis using peptide synthesis. J. Immunol. Methods 102, 259-274 (1987)) using a Multipin Peptide Synthesis Kit (Chiron Mimotopes, Victoria, Australia). Pins were arranged in a plastic holder in the format of a 96-well microtitre plate.
All incubation steps were performed at room temperature (18-25° C.) by lowering the pins reagents dispensed into 96-well microtitre plates (Becton Dickinson, Calif., USA). Washing was accomplished by placing the block of pins in a bath of phosphate buffered saline (PBS) containing Tween 20™ (0.01% v/v) with agitation for four cycles of 5 min. Non-specific binding sites on the surface of the pins were blocked by incubating in PBS containing casein (1% w/v, 175 μl/well) for 1 h. MAb4155 was diluted in blocking buffer and the pins were incubated in the antibody solution (150 μl/well) for 18 h at 4° C. After washing, the pins were incubated in horseradish peroxidase (HRP)-conjugated rabbit anti-mouse immunoglobulin (Dako, High Wycombe, UK, 1/1000 in blocking buffer for 1 h at 150 μl/well). The pins were washed once more and then incubated in ABTS [2,2′-azino-bis (3ethylbenzothiazoline-6-sulphonic acid)] working substrate for 15 min (150 μl/well). ABTS was prepared as a 0.033% (w/v) solution in 0.1M citrate phosphate buffer (pH 4.5) with 33% hydrogen peroxide (1 μl/ml). Colour development was terminated by removal of the pins from the wells and was measured spectrophotometrically at 405 nm using a Milenia Kinetic Analyser™ (DPC, Llanberis, Wales).
In order to identify core binding regions, a set of peptides was synthesised on the heads of pins based on SEQ ID NO:2. […] In addition, a set of peptides was synthesised in which each residue of the lead sequence was replaced by Ala (or Gly if Ala already existed at that position) in order to assess the contribution of each residue to the binding event.
Additional core binding sequences were identified utilizing the amino acid sequence SEQ ID NO:8 and investigating the effect of systematic replacement of each residue by the other 19 naturally occurring amino acids using known techniques as exemplified in Verhoeyen et al., Construction of a reshaped HMFG1 antibody and comparison of its fine specificity with that of the parent mouse antibody. Immunology, 78, 364-370 (1993).

Question: With AAARGLFED [SEQ ID NO:14] as the substance, how does the “Relative Binding of MAb4155 to peptides as measured by ELISA” value (shortened to “Relative Binding of MAb4155 to peptides”) read?
Answer: 1.5

Question: For AAEAGLFED [SEQ ID NO:15], which “Relative Binding of MAb4155 to peptides” value is on record?
Answer: 2.0

Question: For AAERALFED [SEQ ID NO:16], which “Relative Binding of MAb4155 to peptides” value is on record?
Answer: 1.5

Question: How did the “Relative Binding of MAb4155 to peptides” value turn out when AAERGAFED [SEQ ID NO:17] was run?
Answer: 1.6

Question: Which “Relative Binding of MAb4155 to peptides” value does the source give for AAERGL [SEQ ID NO:73] here?
Answer: 1.0

Question: AAERGLAED [SEQ ID NO:78] was tested. Which “Relative Binding of MAb4155 to peptides” value did it give?
Answer: 0.8

Question: With AAERGLF [SEQ ID NO:72] as the substance, how does the “Relative Binding of MAb4155 to peptides” value read?
Answer: 1.0

Question: AAERGLFAD [SEQ ID NO:79] was tested. Which “Relative Binding of MAb4155 to peptides” value did it give?
Answer: 1.8

Question: Which “Relative Binding of MAb4155 to peptides” value does the source give for AAERGLFE [SEQ ID NO:71] here?
Answer: 1.0

Question: With AAERGLFEA [SEQ ID NO:80] as the substance, how does the “Relative Binding of MAb4155 to peptides” value read?
Answer: 1.1

Question: Which “Relative Binding of MAb4155 to peptides” value does the source give for AAERGLFED [SEQ ID NO:2] here?
Answer: 2.0

Question: With AERGLFED [SEQ ID NO:11] as the substance, how does the “Relative Binding of MAb4155 to peptides” value read?
Answer: 1.5

Question: How did the “Relative Binding of MAb4155 to peptides” value turn out when AGERGLFED [SEQ ID NO:13] was run?
Answer: 2.0

Question: With Ala-Ala-Glu (AAE) [SEQ ID NO:76] as the substance, how does the “Relative Binding of MAb4155 to peptides” value read?
Answer: 0.9

Question: Ala-Ala-Glu-Arg (AAER) [SEQ ID NO:75] was tested. Which “Relative Binding of MAb4155 to peptides” value did it give?
Answer: 0.8

Question: How did the “Relative Binding of MAb4155 to peptides” value turn out when “Ala-Ala-Glu-Arg-Gly (AAERG) [SEQ ID NO:74]” was run?
Answer: 1.0

Question: ERGLFED [SEQ ID NO:10] was tested. Which “Relative Binding of MAb4155 to peptides” value did it give?
Answer: 1.8

Question: For GAERGLFED [SEQ ID NO:12], which “Relative Binding of MAb4155 to peptides” value is on record?
Answer: 1.9

Question: How did the “Relative Binding of MAb4155 to peptides” value turn out when “Gly-Leu-Phe-Glu-Asp (GLFED) [SEQ ID NO:8]” was run?
Answer: 2.2

Question: With Leu-Phe-Glu-Asp (LFED) [SEQ ID NO:7] as the substance, how does the “Relative Binding of MAb4155 to peptides” value read?
Answer: 1.9

Question: With Phe-Glu-Asp (FED) [SEQ ID NO:6] as the substance, how does the “Relative Binding of MAb4155 to peptides” value read?
Answer: 2.0

Question: For RGLFED [SEQ ID NO:9], which “Relative Binding of MAb4155 to peptides” value is on record?
Answer: 1.6

Same assay, conditions: Table 2; replacement analogues of SEQ ID NO:8, setting SEQ ID NO:8 to a Relative Binding of 100

Question: How did the “Relative Binding of MAb4155 to peptides” value turn out when “Gly-Leu-Phe-Asp-Asp (GLFDD) [SEQ ID NO:23]” was run?
Answer: 121

Question: How did the “Relative Binding of MAb4155 to peptides” value turn out when “Gly-Leu-Phe-Cys-Asp (GLFCD) [SEQ ID NO:22]” was run?
Answer: 335

Question: For “Gly-Leu-Phe-Glu-Asp (GLFED) [SEQ ID NO:8]”, which “Relative Binding of MAb4155 to peptides” value is on record?
Answer: 100

Question: With “Gly-Leu-Phe-Glu-Cys (GLFEC) [SEQ ID NO:29]” as the substance, how does the “Relative Binding of MAb4155 to peptides” value read?
Answer: 296

Question: With “Gly-Leu-Phe-Glu-Ile (GLFEI) [SEQ ID NO:31]” as the substance, how does the “Relative Binding of MAb4155 to peptides” value read?
Answer: 174

Question: “Gly-Leu-Phe-Glu-Leu (GLFEL) [SEQ ID NO:32]” was tested. Which “Relative Binding of MAb4155 to peptides” value did it give?
Answer: 168

Question: Which “Relative Binding of MAb4155 to peptides” value does the source give for “Gly-Leu-Phe-Glu-Phe (GLFEF) [SEQ ID NO:30]” here?
Answer: 204

Question: Which “Relative Binding of MAb4155 to peptides” value does the source give for “Gly-Leu-Phe-Glu-Trp (GLFEW) [SEQ ID NO:34]” here?
Answer: 594

Question: Which “Relative Binding of MAb4155 to peptides” value does the source give for “Gly-Leu-Phe-Glu-Tyr (GLFEY) [SEQ ID NO:35]” here?
Answer: 386

Question: With “Gly-Leu-Phe-Glu-Val (GLFEV) [SEQ ID NO:33]” as the substance, how does the “Relative Binding of MAb4155 to peptides” value read?
Answer: 177

Question: Which “Relative Binding of MAb4155 to peptides” value does the source give for “Gly-Leu-Phe-Ile-Asp (GLFID) [SEQ ID NO:25]” here?
Answer: 169

Question: With “Gly-Leu-Phe-Leu-Asp (GLFLD) [SEQ ID NO:26]” as the substance, how does the “Relative Binding of MAb4155 to peptides” value read?
Answer: 138

Question: How did the “Relative Binding of MAb4155 to peptides” value turn out when “Gly-Leu-Phe-Phe-Asp (GLFFD) [SEQ ID NO:24]” was run?
Answer: 184

Question: “Gly-Leu-Phe-Trp-Asp (GLFWD) [SEQ ID NO:27]” was tested. Which “Relative Binding of MAb4155 to peptides” value did it give?
Answer: 578

Question: For “Gly-Leu-Phe-Tyr-Asp (GLFYD) [SEQ ID NO:28]”, which “Relative Binding of MAb4155 to peptides” value is on record?
Answer: 252

Question: How did the “Relative Binding of MAb4155 to peptides” value turn out when “Gly-Leu-Trp-Glu-Asp (GLWED) [SEQ ID NO:21]” was run?
Answer: 207

Question: How did the “Relative Binding of MAb4155 to peptides” value turn out when “Gly-Phe-Phe-Glu-Asp (GFFED) [SEQ ID NO:18]” was run?
Answer: 200

Question: For “Gly-Trp-Phe-Glu-Asp (GWFED) [SEQ ID NO:19]”, which “Relative Binding of MAb4155 to peptides” value is on record?
Answer: 343

Question: “Gly-Tyr-Phe-Glu-Asp (GYFED) [SEQ ID NO:20]” was tested. Which “Relative Binding of MAb4155 to peptides” value did it give?
Answer: 220

System: MAb4155 (anti-estrone-3-glucuronide monoclonal antibody)
Experiment: as above
Design: species or system mouse
Conditions: D-isomer reverse sequence versus L-isomer parent

Question: For “Asp-Tyr-Phe-Leu-Gly (DYFLG) [SEQ ID NO:37]”, which “Binding affinity relative to the parent sequence (SEQ ID NO:28)” value is on record?
Answer: equivalent
